This is an account of results in US20240024490A1, “BIFUNCTIONAL MOLECULES FOR SELECTIVE MODIFICATION OF TARGET SUBSTRATES” (The Broad Institute, Inc., priority 2021, published 2024).

Read-outs that look alike come from different tables or passages of the source.

The test system of data set [1] is C26. The conditions noted are these: cited from earlier work.
For data set [2] the following is noted: cited from earlier work.
Data set [3] concerns EGFR(L858R/T790M/C797S) tumors. Conditions: in vivo; cited from earlier work.
The test system of data set [4] is screening panel of kinases. The conditions noted are these: 1000 nM EAI045; cited from earlier work.
For data set [5], the system named is FGFR2. Conditions: read-out: IC50, FGF1-induced ERK phosphorylation via FGFR2; cited from earlier work.
Data set [6] relates to LPS-stimulated THP-1 cells. The conditions noted are these: read-out: IC50, block of TNFα release; cited from earlier work.
Data set [7] has as its system Crk-L. Conditions: cited from earlier work.
For data set [8] the following is noted: cited from earlier work. This is another data set of the same source.
Data set [9] deals with NCI-H441 cells. Conditions: read-out: phosphor-MET IC50; cited from earlier work.
The test system of data set [10] is NCI-H441 cells. The conditions noted are these: read-out: viability IC50; cited from earlier work.
Data set [11] has as its target T1, c-Met (Homo sapiens, UniProt P08581).
T1 construct: host or cells: NCI-H441 (as the sentence says)
Conditions: cited from earlier work.

Data set [12] concerns NCI-H441 cells. The conditions noted are these: read-out: Invasion IC50; cited from earlier work.
Data set [13] has as its system AMPK. The conditions noted are these: cited from earlier work.
In data set [14] the test system is RS4. Conditions: cited from earlier work.
Data set [15] relates to SEM cells. Conditions: cited from earlier work.
Data set [16] deals with 697 cells. The conditions noted are these: cited from earlier work.
The test system of data set [17] is Molt-4 (T cell acute lymphoblastic leukemia) xenografts. The conditions noted are these: SCID mice; cited from earlier work.
Data set [18] relates to LAX7R. Conditions: cited from earlier work.
For data set [19], the system named is Nalm6. The conditions noted are these: cited from earlier work.
In data set [20] the test system is KOPN-8. Conditions: cited from earlier work.
Data set [21] relates to MS751 cervical carcinoma. Conditions: read-out: IC50, proliferation; cited from earlier work.
Data set [22] concerns Z138. Conditions: read-out: IC50, proliferation; cited from earlier work.
Data set [23] concerns REH. Conditions: cited from earlier work.
The subject of data set [24] is SupB15. The conditions noted are these: cited from earlier work.
In data set [25] the test system is ICN13. The conditions noted are these: cited from earlier work.
The test system of data set [26] is OP-1. Conditions: cited from earlier work.
Data set [27] relates to LAX2. The conditions noted are these: cited from earlier work.
In data set [28] the test system is BT-474 (breast). The conditions noted are these: cited from earlier work.
Data set [29] deals with MCF-7 (breast). Conditions: cited from earlier work.
Data set [30] has as its system KU-19-19 (bladder). The conditions noted are these: cited from earlier work.
The conditions of data set [31]: in vivo; cited from earlier work.
Data set [32] concerns p-ERK1/2. The conditions noted are these: cited from earlier work.
Data set [33] relates to CD138-purified multiple myeloma (MM) cells from patients. The conditions noted are these: cited from earlier work.
For data set [34], the system named is PTK2. Conditions: prostate cancer cells; read-out: IC50, autophosphorylation of PTK2; cited from earlier work.
In data set [35] the target is RIPK-1 (Homo sapiens, UniProt Q13546). Conditions: cited from earlier work.
The subject of data set [36] is FGFR. Put plainly: FGFR-FKBP phosphorylation by ABL and FGFR1/mTOR/G-CSF signaling. The class given is cell-based. From the text: Applicants expanded the scope of ABL targets by phosphorylating a receptor tyrosine kinase, FGFR by fusing an FKBP domain to the cytosolic portion of FGFR (FIG. 37).
Data set [37] concerns HER2-Cter-FKBP. The data set is described as follows: Phosphorylation of HER2-Cter-FKBP by ABL in transfected HEK293 cells (pY1221 HER2-specific antibody). The class given is cell-based. Conditions: 15 minutes of compound treatment, FIG. 74C.
Data set [38] relates to HER2-Cter-FKBP construct. The data set is described as follows: Phosphorylation of HER2-FKBP construct by ABL in HEK293 cells. In kind it is cell-based. Conditions: 15 minutes, pY1221 HER2-specific antibody.
Data set [39] has as its target β2 subunit-containing AMPK (Homo sapiens, UniProt O43741+Q13131). The conditions noted are these: cited from earlier work.
Data set [40] addresses β1 subunit-containing AMPK (Homo sapiens, UniProt Q13131+Q9Y478). The conditions noted are these: cited from earlier work.

T1 sequence (P08581 25-1390): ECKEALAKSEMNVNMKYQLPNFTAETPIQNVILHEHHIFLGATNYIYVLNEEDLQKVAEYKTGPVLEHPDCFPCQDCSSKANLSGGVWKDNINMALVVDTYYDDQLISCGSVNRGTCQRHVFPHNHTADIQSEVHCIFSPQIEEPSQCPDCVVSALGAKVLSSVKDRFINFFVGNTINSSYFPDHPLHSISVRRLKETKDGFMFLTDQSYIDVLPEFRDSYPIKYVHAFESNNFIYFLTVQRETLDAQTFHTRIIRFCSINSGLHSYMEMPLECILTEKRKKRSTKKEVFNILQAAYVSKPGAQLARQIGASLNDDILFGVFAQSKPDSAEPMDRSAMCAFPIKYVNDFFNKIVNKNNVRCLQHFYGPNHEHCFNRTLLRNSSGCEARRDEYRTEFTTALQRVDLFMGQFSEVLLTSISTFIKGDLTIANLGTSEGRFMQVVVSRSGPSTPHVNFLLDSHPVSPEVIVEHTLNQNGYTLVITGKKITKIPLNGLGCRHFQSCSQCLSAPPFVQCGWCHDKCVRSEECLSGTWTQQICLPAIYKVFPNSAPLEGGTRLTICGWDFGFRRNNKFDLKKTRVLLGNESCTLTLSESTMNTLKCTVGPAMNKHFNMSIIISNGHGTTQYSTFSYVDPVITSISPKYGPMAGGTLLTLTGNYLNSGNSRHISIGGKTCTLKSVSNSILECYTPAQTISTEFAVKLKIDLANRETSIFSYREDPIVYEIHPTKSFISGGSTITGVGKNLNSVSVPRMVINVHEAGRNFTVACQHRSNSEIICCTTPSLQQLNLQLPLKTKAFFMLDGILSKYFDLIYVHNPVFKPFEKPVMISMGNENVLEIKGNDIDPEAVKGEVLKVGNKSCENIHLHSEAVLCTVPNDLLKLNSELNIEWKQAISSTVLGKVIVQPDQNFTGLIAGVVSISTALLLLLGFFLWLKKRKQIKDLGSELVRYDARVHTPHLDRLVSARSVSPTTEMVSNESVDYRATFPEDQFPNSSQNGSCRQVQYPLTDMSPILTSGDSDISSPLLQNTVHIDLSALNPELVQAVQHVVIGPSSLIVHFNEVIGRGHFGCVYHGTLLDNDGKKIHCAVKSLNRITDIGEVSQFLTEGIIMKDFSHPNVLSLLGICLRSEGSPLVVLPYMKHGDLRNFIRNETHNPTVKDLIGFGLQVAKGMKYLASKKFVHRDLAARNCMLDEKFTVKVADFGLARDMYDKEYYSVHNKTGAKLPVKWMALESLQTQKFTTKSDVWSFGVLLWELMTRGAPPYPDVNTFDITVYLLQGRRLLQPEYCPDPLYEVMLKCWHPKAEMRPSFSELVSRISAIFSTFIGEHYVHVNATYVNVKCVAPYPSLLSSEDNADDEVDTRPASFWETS
Chain of β2 subunit-containing AMPK (O43741 whole entry): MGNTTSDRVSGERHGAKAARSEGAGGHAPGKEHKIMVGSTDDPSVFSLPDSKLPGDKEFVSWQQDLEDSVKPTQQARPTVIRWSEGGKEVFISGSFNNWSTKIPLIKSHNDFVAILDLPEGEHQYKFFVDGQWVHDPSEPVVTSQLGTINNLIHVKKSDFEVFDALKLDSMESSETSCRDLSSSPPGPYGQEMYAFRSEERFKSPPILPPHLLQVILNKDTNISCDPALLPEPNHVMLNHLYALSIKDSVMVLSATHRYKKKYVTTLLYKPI
Chain of β2 subunit-containing AMPK (Q13131 whole entry): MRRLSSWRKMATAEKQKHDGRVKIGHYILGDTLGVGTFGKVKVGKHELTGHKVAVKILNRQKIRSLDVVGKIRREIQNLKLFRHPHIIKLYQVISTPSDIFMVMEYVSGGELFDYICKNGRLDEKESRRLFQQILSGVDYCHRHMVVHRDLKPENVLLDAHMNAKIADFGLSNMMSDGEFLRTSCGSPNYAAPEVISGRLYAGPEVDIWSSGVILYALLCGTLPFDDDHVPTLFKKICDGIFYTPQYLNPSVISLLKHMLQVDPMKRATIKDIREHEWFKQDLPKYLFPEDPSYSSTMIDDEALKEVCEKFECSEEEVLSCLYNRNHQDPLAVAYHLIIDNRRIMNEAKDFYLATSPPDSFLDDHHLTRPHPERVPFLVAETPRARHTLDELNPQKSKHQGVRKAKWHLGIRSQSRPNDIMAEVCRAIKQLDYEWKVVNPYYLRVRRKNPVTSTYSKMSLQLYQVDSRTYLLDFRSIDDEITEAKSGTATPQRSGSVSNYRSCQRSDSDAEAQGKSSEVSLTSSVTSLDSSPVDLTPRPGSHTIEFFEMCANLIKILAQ
Chain of β2 subunit-containing AMPK (P54619 whole entry partner): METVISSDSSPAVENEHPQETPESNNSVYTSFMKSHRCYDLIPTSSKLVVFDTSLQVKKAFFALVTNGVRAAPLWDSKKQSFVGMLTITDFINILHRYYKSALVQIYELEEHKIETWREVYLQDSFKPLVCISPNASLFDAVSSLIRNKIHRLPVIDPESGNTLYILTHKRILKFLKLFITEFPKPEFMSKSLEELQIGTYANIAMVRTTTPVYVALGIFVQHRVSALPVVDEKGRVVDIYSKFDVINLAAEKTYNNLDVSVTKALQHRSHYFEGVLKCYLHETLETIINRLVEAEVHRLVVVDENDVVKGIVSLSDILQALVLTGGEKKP
Chain of RIPK-1 (Q13546 whole entry, species assumed, the tested form may be a part): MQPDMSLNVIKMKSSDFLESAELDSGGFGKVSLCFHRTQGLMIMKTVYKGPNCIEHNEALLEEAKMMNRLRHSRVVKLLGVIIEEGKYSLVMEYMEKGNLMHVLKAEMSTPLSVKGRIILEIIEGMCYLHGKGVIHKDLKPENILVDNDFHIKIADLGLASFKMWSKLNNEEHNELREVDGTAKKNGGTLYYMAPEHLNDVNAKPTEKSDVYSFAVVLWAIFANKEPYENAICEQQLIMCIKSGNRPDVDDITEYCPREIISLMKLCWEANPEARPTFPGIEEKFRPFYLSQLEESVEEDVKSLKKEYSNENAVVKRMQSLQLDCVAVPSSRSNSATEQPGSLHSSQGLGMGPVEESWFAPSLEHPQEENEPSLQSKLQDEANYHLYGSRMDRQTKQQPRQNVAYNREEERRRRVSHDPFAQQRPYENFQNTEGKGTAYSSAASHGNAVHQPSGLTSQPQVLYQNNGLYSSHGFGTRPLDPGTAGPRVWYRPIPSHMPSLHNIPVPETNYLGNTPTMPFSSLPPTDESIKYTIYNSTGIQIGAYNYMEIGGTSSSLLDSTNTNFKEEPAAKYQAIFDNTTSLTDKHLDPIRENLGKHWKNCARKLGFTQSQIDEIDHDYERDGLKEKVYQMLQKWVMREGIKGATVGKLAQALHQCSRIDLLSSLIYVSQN
Chain of β1 subunit-containing AMPK (Q9Y478 whole entry): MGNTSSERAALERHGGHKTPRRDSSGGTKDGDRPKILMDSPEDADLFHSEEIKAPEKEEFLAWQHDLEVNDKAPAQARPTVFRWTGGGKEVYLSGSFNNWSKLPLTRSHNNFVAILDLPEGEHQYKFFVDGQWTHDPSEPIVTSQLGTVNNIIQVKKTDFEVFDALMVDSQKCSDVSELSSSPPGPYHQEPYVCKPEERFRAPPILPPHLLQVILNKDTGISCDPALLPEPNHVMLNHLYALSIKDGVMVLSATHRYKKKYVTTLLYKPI
Chain of β1 subunit-containing AMPK (Q13131 whole entry): as the sequence (Q13131 whole entry) above
Chain of β1 subunit-containing AMPK (P54619 whole entry partner): as the sequence (P54619 whole entry partner) above

As for `O=C(NOCC1CC1)c1ccc(F)c(F)c1Nc1ccc(I)cc1Cl` [24 (CI-1040), CI-1040], the IC50 in [1] is 35 nM. Besides, the “Sol (pH 6.5)” value in data set [2] was <1 μg/mL.

Regarding `O=C(Nc1nccs1)C(c1cc(F)ccc1O)N1Cc2ccccc2C1=O` (stereo not shown) [EAI045], the “efficacy in xenograft models” value in data set [3] is given as “effective”. Besides, the “inhibition of any other kinases in screening panels” value in [4] is given as ≤ 20%.

As to `COc1c(C)c(C(=O)c2ccc(N)c(C(=O)O)c2)n2ccccc12` [SSR128129E], the IC50 in data set [5] is < 100 nM.

Turning to `Cc1ccc(-n2nc(C(C)(C)C)cc2NC(=O)Nc2ccc(OCCN3CCOCC3)c3ccccc23)cc1` [Doramapimod], the IC50 in data set [6] was 18 nM.

With `N#CCCC(=O)NC1=NN(c2ccc(Cl)c(Cl)c2)CC1` [compound 32], the “Fold Increase phCRKE Vs Total Crk-L (normalised)” value in [7] (40 min) is 19x; in data set [7] (180 min), 35x. Further, the “In Vitro Clearance” value in data set [8] was <0.01 mL/min/mg protein.

On to `O=C1NC(=O)[C@@H](c2cn3c4c(cccc24)CCC3)[C@@H]1c1c[nH]c2ccccc12` [tivantinib], for which the IC50 in [9] is 100 nM; in data set [10], 100 nM; in [11] (read-out: Enzyme IC50), 50 nM; in data set [12], 80 nM. Moreover, the pKi – broadly, the negative decadic logarithm of the Ki, by convention in mol/L – in data set [11] is 6.4. For the same compound, the “selectivity for c-Met over other kinases tested” value in data set [11] is 10-100 time.

For `N#Cc1c(O)c2c(-c3ccc(-c4ccccc4O)cc3)csc2[nH]c1=O` [A769662], in data set [13], the pEC50 – broadly, −log10 of the EC50, conventionally taken in molar units – is 6.0.

For `Nc1ccc(/C=C/C(=O)NCc2cc3cc(-c4ccc(C(=O)N5CCC(F)(F)CC5)cc4)cc(-c4ccc(F)cc4)c3o2)cn1` [KPT-9274], the IC50 in data set [14] is 5.6 nM; in data set [15] it was > 10000 nM; in [16], 16.7 nM; in [18], 32.7 nM; in [19] it was 19 nM; in [20], 2.4 nM. Besides, the IC50 in [21] is < 100 nM; in [22], < 100 nM; in data set [23] it was 14.3 nM; in data set [24] it was 22.6 nM; in data set [25], 25.9 nM; in [26] it was 18 nM. In addition, the IC50 in data set [27] was 19.4 nM. Also, in data set [17], the effect on xenografts result is “induces shrinkage”.

For `C=CC(=O)Nc1ccc2[nH]c(=O)n(C3CCN(Cc4ccc(-c5nc6cc[nH]c(=O)c6cc5-c5ccccc5)cc4)CC3)c2c1` [Borussertib], the EC50 (in general, the concentration that produces a half-maximal response) in data set [28] was 373 ± 54 nM; in data set [29], 277 ± 90 nM; in [30] it was 7770 ± 641 nM.

For the compound `CC(=O)Nc1cccc(-n2c(=O)n(C3CC3)c(=O)c3c(Nc4ccc(I)cc4F)n(C)c(=O)c(C)c32)c1` [Trametinib, Trametnib], the “Absorption/distribution of an oral dose” value in [31] is on record as 72%. Also, the “sustained suppression of p-ERK1/2” value in data set [32] is “more than 24 hours”.

Turning to `O=C(NC[C@H](O)CO)c1ccncc1Nc1ccc(I)cc1F` [Pimasertib], the IC50 in data set [33] is 2 to 200 nM.

Turning to `CN1c2ccc(NCc3ccc(C(C)(C)C)cc3)cc2-c2c(cnn2C)S1(=O)=O` [compound 30], in data set [34], the IC50 is 7100 nM.

As for `CCC(C)(C)C(=O)N(O)Cc1ccccc1` [RIPA-56], the pIC50 – broadly, the IC50 on a negative log10 scale, so that one unit is a factor of ten – in data set [35] was 7.9.

`CC[C@H](C(=O)N1CCCC[C@H]1C(=O)O[C@@H](CCc1ccc(OC)c(OC)c1)c1cccc(OCC(=O)NCCOCCOCCOCCOCCC(=O)NC2=NN(c3ccc(Cl)c(Cl)c3)CC2)c1)c1cc(OC)c(OC)c(OC)c1` [VS1043]: the “FGFR phosphorylation / FGFR1/mTOR/G-CSF signaling” value in [36] was “activates FGFR1/mTOR/G-CSF signaling in a dose dependent manner”. Besides, the “phosphorylation of HER2-Cter-FKBP construct” value in data set [37] and in data set [38] was “significant phosphorylation” throughout.

With MT47-100, the “pKi as an allosteric inhibitor” value in data set [39] is reported as 4.6. The “pKi as an activator” value in data set [40] is reported as 5.4.
